Data published in patent US12662479B2 (Foghorn Therapeutics Inc., priority 2020, dated 2026).
Structures can show the parent of a compound that is named as a salt.

Tests used:
HiBit-BRM fusion protein = biological target: T1, HiBit-BRM fusion protein (Homo sapiens, UniProt P51531); assay: HiBiT-BRM cell-based degradation assay (Nano-Glo HiBiT Lytic Detection, 24 h); conditions: HeLa cells expressing HiBiT-BRM; for DC50: read-out: BRM HiBit Degradation IC50; for BRM HiBit Degradation Maximum measured: top dose 30 μM
T1 construct: expressed in transfected cells
How it was run: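 Stable HiBiT-BRM HeLa line; 24 h compound exposure, top final 30 μM, 3-fold, 10 pts in duplicate. Lytic HiBiT/LgBiT luminescence readout. % degradation vs DMSO (0%) and 2 μM known BRM/BRG1 degrader (100%).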

[1] = biological target: T2, HiBit-BRG1 fusion protein (Homo sapiens, UniProt P51532); assay: HiBiT-BRG1 cell-based degradation assay (Nano-Glo HiBiT Lytic Detection, 24 h); conditions: HeLa cells expressing HiBit-BRG1 and LgBit; for DC50: read-out: BRG1 HiBit Degradation IC50; for Dmax: HeLa, top dose 30 μM, read-out: BRG1 HiBit Degradation Maximum measured
T2 construct: expressed in transfected cells
How it was run: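 Degradation is scaled from DMSO-treated cells (0%) to cells given 2 μM of a known BRM/BRG1 degrader (100%). HeLa cells stably carrying HiBiT-BRG1 plus LgBiT (5000/well) were lysed with Nano-Glo HiBiT detection reagent, shaken 10 min at RT, and luminescence read.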

T2 sequence (P51532 whole entry, the tested form may be a part): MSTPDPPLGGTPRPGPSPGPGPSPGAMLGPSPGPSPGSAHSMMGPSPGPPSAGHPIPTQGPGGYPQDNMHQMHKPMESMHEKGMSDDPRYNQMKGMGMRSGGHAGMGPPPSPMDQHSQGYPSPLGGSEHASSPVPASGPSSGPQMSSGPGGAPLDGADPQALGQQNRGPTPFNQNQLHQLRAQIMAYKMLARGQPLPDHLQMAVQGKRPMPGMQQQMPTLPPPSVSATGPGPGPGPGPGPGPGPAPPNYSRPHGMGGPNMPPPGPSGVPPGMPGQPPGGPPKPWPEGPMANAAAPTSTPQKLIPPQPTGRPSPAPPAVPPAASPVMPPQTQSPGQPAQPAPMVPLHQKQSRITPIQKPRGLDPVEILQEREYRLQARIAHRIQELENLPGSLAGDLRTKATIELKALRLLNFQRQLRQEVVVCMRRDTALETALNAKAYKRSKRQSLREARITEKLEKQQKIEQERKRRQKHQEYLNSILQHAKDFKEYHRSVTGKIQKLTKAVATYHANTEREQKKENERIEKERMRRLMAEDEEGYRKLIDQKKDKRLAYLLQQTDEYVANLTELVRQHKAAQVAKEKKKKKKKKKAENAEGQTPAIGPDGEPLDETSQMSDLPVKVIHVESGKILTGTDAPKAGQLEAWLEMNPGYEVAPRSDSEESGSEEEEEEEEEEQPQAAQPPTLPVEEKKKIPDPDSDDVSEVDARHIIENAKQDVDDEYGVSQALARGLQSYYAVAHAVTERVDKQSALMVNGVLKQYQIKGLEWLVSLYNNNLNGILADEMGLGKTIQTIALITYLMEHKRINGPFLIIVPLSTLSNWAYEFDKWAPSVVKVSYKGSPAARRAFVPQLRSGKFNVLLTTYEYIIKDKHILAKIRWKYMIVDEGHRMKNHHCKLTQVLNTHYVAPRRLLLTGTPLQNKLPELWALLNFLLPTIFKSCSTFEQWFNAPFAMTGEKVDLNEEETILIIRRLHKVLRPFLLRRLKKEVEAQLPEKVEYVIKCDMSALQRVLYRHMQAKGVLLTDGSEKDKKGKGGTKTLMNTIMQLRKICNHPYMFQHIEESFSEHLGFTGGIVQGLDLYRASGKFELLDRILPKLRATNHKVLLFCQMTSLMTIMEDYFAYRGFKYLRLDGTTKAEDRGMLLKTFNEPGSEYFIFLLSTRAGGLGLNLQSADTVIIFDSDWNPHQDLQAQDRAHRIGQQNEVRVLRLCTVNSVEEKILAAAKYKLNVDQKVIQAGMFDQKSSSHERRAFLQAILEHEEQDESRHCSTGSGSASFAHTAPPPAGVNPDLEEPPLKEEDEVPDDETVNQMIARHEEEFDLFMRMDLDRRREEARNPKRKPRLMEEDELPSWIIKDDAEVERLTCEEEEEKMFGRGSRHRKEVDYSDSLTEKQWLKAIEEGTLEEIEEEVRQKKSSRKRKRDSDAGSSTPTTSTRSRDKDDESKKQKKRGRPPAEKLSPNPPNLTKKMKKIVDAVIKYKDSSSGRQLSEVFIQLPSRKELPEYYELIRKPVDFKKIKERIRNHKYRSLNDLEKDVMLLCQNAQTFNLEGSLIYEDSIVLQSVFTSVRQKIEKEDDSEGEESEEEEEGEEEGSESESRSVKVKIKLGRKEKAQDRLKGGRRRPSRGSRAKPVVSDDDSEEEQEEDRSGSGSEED
T1 sequence (P51531 whole entry, the tested form may be a part): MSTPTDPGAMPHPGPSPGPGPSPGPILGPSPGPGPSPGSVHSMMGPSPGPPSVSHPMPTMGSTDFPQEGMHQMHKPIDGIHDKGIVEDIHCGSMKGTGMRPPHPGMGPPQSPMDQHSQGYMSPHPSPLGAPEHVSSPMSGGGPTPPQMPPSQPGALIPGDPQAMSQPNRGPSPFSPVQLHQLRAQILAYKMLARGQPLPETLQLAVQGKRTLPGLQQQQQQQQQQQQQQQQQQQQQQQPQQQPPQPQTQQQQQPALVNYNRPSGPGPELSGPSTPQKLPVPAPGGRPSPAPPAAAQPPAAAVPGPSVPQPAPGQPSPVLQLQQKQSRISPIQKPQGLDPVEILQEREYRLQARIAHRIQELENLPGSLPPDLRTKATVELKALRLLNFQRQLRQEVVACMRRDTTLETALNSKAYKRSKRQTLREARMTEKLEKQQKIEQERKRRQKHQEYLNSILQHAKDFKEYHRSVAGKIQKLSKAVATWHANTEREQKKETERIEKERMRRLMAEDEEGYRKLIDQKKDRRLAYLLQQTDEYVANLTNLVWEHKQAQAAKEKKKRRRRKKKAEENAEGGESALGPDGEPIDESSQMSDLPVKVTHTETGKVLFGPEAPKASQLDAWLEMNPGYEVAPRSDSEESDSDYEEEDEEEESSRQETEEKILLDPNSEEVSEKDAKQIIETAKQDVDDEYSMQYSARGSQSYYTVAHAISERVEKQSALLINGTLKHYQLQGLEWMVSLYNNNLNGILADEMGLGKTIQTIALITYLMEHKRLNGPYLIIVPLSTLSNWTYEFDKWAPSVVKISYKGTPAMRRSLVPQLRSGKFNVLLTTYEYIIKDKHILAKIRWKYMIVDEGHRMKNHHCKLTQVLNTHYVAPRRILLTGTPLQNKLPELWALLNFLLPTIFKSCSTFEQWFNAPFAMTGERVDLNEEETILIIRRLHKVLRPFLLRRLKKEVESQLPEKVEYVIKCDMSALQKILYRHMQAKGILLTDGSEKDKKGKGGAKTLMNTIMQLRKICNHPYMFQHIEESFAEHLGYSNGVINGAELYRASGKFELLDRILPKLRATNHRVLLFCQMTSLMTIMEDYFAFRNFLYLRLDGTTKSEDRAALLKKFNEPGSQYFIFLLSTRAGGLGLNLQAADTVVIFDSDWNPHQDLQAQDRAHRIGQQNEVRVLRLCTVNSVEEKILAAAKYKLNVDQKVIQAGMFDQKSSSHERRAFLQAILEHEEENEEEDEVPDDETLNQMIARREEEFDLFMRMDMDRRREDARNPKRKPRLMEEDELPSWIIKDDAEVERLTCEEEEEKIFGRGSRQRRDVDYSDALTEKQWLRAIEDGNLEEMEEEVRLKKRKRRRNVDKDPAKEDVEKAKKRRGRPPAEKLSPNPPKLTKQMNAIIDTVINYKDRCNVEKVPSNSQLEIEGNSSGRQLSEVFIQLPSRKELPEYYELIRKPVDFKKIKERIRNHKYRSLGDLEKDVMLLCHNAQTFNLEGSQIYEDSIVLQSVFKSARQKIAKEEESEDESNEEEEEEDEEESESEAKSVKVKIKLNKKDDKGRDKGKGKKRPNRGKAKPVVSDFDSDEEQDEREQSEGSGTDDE

DC50 (HiBit-BRM fusion protein) | DC50 [1] | Dmax [1] | SMILES | BRM HiBit Degradation Maximum measured (HiBit-BRM fusion protein)
> 10000 nM | > 10000 nM | < 50% | Cc1ncsc1-c1ccc(CNC(=O)[C@@H]2C[C@@H](O)CN2C(=O)[C@@H](NC(=O)CCCCCCCCCCCCC(=O)NCc2ccc(COC[C@H](NC(=O)c3ccn(S(C)(=O)=O)c3)C(=O)Nc3nc(-c4ccccc4)cs3)cc2)C(C)(C)C)cc1 [Compound 211, N-[(2S)-1-[(2S,4R)-4-hydroxy-2-([[4-(4-methyl-1,3-thiazol-5-yl)phenyl]methyl]carbamoyl)pyrrolidin-1-yl]-3,3-dimethyl-1-oxobutan-2-yl]-N′-[(4-[[(2S)-2-[(1-methanesulfonylpyrrol-3-yl)formamido]-2-[(4-phenyl-1,3-thiazol-2-yl)carbamoyl]ethoxy]methyl]phenyl)methyl]tetradecanediamide] | C (‘C’ = Maximum degradation <50%)
> 10000 nM | > 10000 nM | < 50% | CS(=O)(=O)n1ccc(C(=O)N[C@@H](COCc2ccc(CNC(=O)CCCCOc3cccc4c3C(=O)N(C3CCC(=O)NC3=O)C4=O)cc2)C(=O)Nc2nc(-c3ccccc3)cs2)c1 (stereo partly drawn) [Compound 212, 5-[[2-(2,6-dioxopiperidin-3-yl)-1,3-dioxoisoindol-4-yl]oxy]-N-[(4-[[(2S)-2-[(1-methanesulfonylpyrrol-3-yl)formamido]-2-[(4-phenyl-1,3-thiazol-2-yl)carbamoyl]ethoxy]methyl]phenyl)methyl]pentanamide] | C (‘C’ = Maximum degradation <50%)
100 to 1000 nM | 100 to 1000 nM | 50 to 75% | CS(=O)(=O)n1ccc(C(=O)N[C@@H](COCc2ccc(CNC(=O)CCCCCCCOc3cccc4c3C(=O)N(C3CCC(=O)NC3=O)C4=O)cc2)C(=O)Nc2nc(-c3ccccc3)cs2)c1 (stereo partly drawn) [Compound 213, 8-[[2-(2,6-dioxopiperidin-3-yl)-1,3-dioxoisoindol-4-yl]oxy]-N-[(4-[[(2S)-2-[(1-methanesulfonylpyrrol-3-yl)formamido]-2-[(4-phenyl-1,3-thiazol-2-yl)carbamoyl]ethoxy]methyl]phenyl)methyl]octanamide] | B (‘B’ = Maximum degradation ≥50% and ≤75%)
100 to 1000 nM | 100 to 1000 nM |  | CS(=O)(=O)n1ccc(C(=O)N[C@@H](COCc2ccc(CNC(=O)CCCCCCCCCCNc3cccc4c3C(=O)N(C3CCC(=O)NC3=O)C4=O)cc2)C(=O)Nc2nc(-c3ccccc3)cs2)c1 (stereo partly drawn) [Compound 214, 11-[[2-(2,6-dioxopiperidin-3-yl)-1,3-dioxoisoindol-4-yl]amino]-N-[(4-[[(2S)-2-[(1-methanesulfonylpyrrol-3-yl)formamido]-2-[(4-phenyl-1,3-thiazol-2-yl)carbamoyl]ethoxy]methyl]phenyl)methyl]undecanamide] | B (‘B’ = Maximum degradation ≥50% and ≤75%)
100 to 1000 nM | 100 to 1000 nM | > 75% | CS(=O)(=O)n1ccc(C(=O)N[C@@H](COCc2ccc(CNC(=O)CCN3CCN(c4ccc5c(c4)C(=O)N(C4CCC(=O)NC4=O)C5=O)CC3)cc2)C(=O)Nc2nc(-c3ccccc3)cs2)c1 (stereo partly drawn) [Compound 215, (2S)-3-([4-[(3-[4-[2-(2,6-dioxopiperidin-3-yl)-1,3-dioxoisoindol-5-yl]piperazin-1-yl]propanamido)methyl]phenyl]methoxy)-2-[(1-methanesulfonylpyrrol-3-yl)formamido]-N-(4-phenyl-1,3-thiazol-2-yl)propanamide; formic acid] | B (‘B’ = Maximum degradation ≥50% and ≤75%)
100 to 1000 nM | 100 to 1000 nM | > 75% | CS(=O)(=O)n1ccc(C(=O)N[C@@H](COCc2ccc(CNC(=O)C3CCN(CCOc4ccc5c(c4)C(=O)N(C4CCC(=O)NC4=O)C5=O)CC3)cc2)C(=O)Nc2nc(-c3ccccc3)cs2)c1 (stereo partly drawn) [Compound 216, 1-(2-[[2-(2,6-dioxopiperidin-3-yl)-1,3-dioxoisoindol-5-yl]oxy]ethyl)-N-[(4-[[(2S)-2-[(1-methanesulfonylpyrrol-3-yl)formamido]-2-[(4-phenyl-1,3-thiazol-2-yl)carbamoyl]ethoxy]methyl]phenyl)methyl]piperidine-4-carboxamide; formic acid] | A (‘A’ = Maximum degradation >75%)
100 to 1000 nM | 100 to 1000 nM | 50 to 75% | CS(=O)(=O)n1ccc(C(=O)N[C@@H](COCc2ccc(CNC(=O)CCOCCOCCOc3ccc4c(c3)C(=O)N(C3CCC(=O)NC3=O)C4=O)cc2)C(=O)Nc2nc(-c3ccccc3)cs2)c1 (stereo partly drawn) [Compound 217, 3-[2-(2-[[2-(2,6-dioxopiperidin-3-yl)-1,3-dioxoisoindol-5-yl]oxy]ethoxy)ethoxy]-N-[(4-[[(2S)-2-[(1-methanesulfonylpyrrol-3-yl)formamido]-2-[(4-phenyl-1,3-thiazol-2-yl)carbamoyl]ethoxy]methyl]phenyl)methyl]propanamide] | B (‘B’ = Maximum degradation ≥50% and ≤75%)
> 10000 nM | > 10000 nM | < 50% | Cc1ncsc1-c1ccc(CNC(=O)[C@@H]2C[C@@H](O)CN2C(=O)[C@@H](NC(=O)CCCCCCCNC(=O)CCCOCC[C@H](NC(=O)c2ccn(S(C)(=O)=O)c2)C(=O)Nc2nc(-c3ccccc3)cs2)C(C)(C)C)cc1 [Compound 218, (2S,4R)-4-hydroxy-1-[(2S)-2-(8-[4-[(3S)-3-[(1-methanesulfonylpyrrol-3-yl)formamido]-3-[(4-phenyl-1,3-thiazol-2-yl)carbamoyl]propoxy]butanamido]octanamido)-3,3-dimethylbutanoyl]-N-[[4-(4-methyl-1,3-thiazol-5-yl)phenyl]methyl]pyrrolidine-2-carboxamide] | C (‘C’ = Maximum degradation <50%)
> 10000 nM | > 10000 nM | < 50% | CS(=O)(=O)n1ccc(C(=O)N[C@@H](CCOCCCC(=O)NCCOCCOCCNC(=O)COc2cccc3c2C(=O)N(C2CCC(=O)NC2=O)C3=O)C(=O)Nc2nc(-c3ccccc3)cs2)c1 (stereo partly drawn) [Compound 223, (2S)-4-[3-[(2-[2-[2-(2-[[2-(2,6-dioxopiperidin-3-yl)-1,3-dioxoisoindol-4-yl]oxy]acetamido)ethoxy]ethoxy]ethyl)carbamoyl]propoxy]-2-[(1-methanesulfonylpyrrol-3-yl)formamido]-N-(4-phenyl-1,3-thiazol-2-yl)butanamide] | C (‘C’ = Maximum degradation <50%)

SMILES | DC50 (HiBit-BRM fusion protein) | DC50 [1] | Dmax [1] | BRM HiBit Degradation Maximum measured (HiBit-BRM fusion protein)
CS(=O)(=O)n1ccc(C(=O)N[C@@H](CCOCCCC(=O)N2CCN(CCOc3ccc4c(c3)C(=O)N(C3CCC(=O)NC3=O)C4=O)CC2)C(=O)Nc2nc(-c3ccccc3)cs2)c1 (stereo partly drawn) [Compound 219, (2S)-4-[4-[4-(2-[[2-(2,6-dioxopiperidin-3-yl)-1,3-dioxoisoindol-5-yl]oxy]ethyl)piperazin-1-yl]-4-oxobutoxy]-2-[(1-methanesulfonylpyrrol-3-yl)formamido]-N-(4-phenyl-1,3-thiazol-2-yl)butanamide] | > 10000 nM | > 10000 nM | < 50% | C (‘C’ = Maximum degradation <50%)
CS(=O)(=O)n1ccc(C(=O)N[C@@H](CCOCCCC(=O)N2CCC(CN3CCN(c4ccc5c(c4)C(=O)N(C4CCC(=O)NC4=O)C5=O)CC3)CC2)C(=O)Nc2nc(-c3ccccc3)cs2)c1 (stereo partly drawn) [Compound 220, N-((2S)-4-(4-(4-((4-(2-(2,6-dioxopiperidin-3-yl)-1,3-dioxoisoindolin-5-yl)piperazin-1-yl)methyl)piperidin-1-yl)-4-oxobutoxy)-1-oxo-1-((4-phenylthiazol-2-yl)amino)butan-2-yl)-1-(methylsulfonyl)-1H-pyrrole-3-carboxamide formate] | > 10000 nM | > 10000 nM | < 50% | C (‘C’ = Maximum degradation <50%)
CS(=O)(=O)n1ccc(C(=O)N[C@@H](CCOCCCC(=O)N2CC(CN3CCN(c4ccc5c(c4)C(=O)N(C4CCC(=O)NC4=O)C5=O)CC3)C2)C(=O)Nc2nc(-c3ccccc3)cs2)c1 (stereo partly drawn) [Compound 221, (2S)-4-[4-[3-([4-[2-(2,6-dioxopiperidin-3-yl)-1,3-dioxoisoindol-5-yl]piperazin-1-yl]methyl)azetidin-1-yl]-4-oxobutoxy]-2-[(1-methanesulfonylpyrrol-3-yl)formamido]-N-(4-phenyl-1,3-thiazol-2-yl)butanamide] | > 10000 nM | > 10000 nM | < 50% | C (‘C’ = Maximum degradation <50%)
CS(=O)(=O)n1ccc(C(=O)N[C@@H](CCOCCCC(=O)N2CC3(CCN(CCCNc4ccc5c(c4)C(=O)N(C4CCC(=O)NC4=O)C5=O)CC3)C2)C(=O)Nc2nc(-c3ccccc3)cs2)c1 (stereo partly drawn) [Compound 222, (2S)-4-[4-[7-(3-[[2-(2,6-dioxopiperidin-3-yl)-1,3-dioxoisoindol-5-yl]amino]propyl)-2,7-diazaspiro[3.5]nonan-2-yl]-4-oxobutoxy]-2-[(1-methanesulfonylpyrrol-3-yl)formamido]-N-(4-phenyl-1,3-thiazol-2-yl)butanamide; formic acid] | > 10000 nM | > 10000 nM | < 50% | C (‘C’ = Maximum degradation <50%)
